One assay addresses Bcl-2 WT (Homo sapiens, UniProt P10415). As to the kind of experiment: Bcl-2 WT inhibition, fluorescence polarization (Flu-BIM tracer) binding assay. The conditions noted are these: FP; 20 nM Bcl2, 5 nM Flu-BIM, 1 h incubation; read-out: Bcl-2 w.t. (FP).
Another assay deals with MV-4-11 cells. As to the kind of experiment: CCK-8 cell viability assay in MV-4-11 cells. The assay is classed as cell-based. Conditions: Homo sapiens, MV4-11, 72 h, 10% FBS, 3 days. The method in brief:
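MV-4-11 cells (20000/well) were exposed to serially diluted compound for 3 days at 37 °C. Viability was then measured with CCK-8 (1–4 h, absorbance 450 nm). IC50 was derived from readings normalized to vehicle.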

Another assay concerns RS4; 11Bcl-2-G101V cells. As to the kind of experiment: CellTiter-Glo (CTG) cell viability assay in RS4;11-Bcl-2-G101V cells. The assay is classed as cell-based. The conditions noted are these: 72 h, 10% FBS, 3 days. The method in brief: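 Engineered RS4;11 lines carrying Bcl-2 mutants, 10000 cells/well in RPMI-1640 with 10% FBS, exposed to serially diluted compound for 3 days at 37 °C, 5% CO2. Viability read by CellTiter-Glo luminescence, normalized to vehicle; IC50 calculated.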

Chain of Bcl-2 WT (P10415 whole entry): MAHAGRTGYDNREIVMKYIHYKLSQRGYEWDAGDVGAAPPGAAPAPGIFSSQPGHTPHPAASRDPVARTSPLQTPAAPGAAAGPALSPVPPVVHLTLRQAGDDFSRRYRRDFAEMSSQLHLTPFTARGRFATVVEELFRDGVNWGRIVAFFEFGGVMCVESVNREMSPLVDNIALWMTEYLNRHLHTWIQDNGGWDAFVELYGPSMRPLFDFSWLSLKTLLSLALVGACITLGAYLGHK

Regarding `C[C@@H]1CN(Cc2csc(C3=C(CN4CCN(c5ccc(C(=O)NS(=O)(=O)c6ccc(NC[C@H]7COCCO7)c([N+](=O)[O-])c6)c(Oc6cnc7[nH]ccc7c6)c5)CC4)CCC(C)(C)C3)c2)C[C@H](C)N1C` [Example 29, N-((4-((((S)-1,4-dioxan-2-yl)methyl)amino)-3-nitrophenyl)sulfonyl)-2-((1H-pyrrolo[2,3-b]pyridin-5-yl)oxy)-4-(4-((4,4-dimethyl-2-(4-(((3S,5R)-3,4,5-trimethylpiperazin-1-yl)methyl)thiophen-2-yl)cyclohex-1-en-1-yl)methyl)piperazin-1-yl)benzamide], the values for the IC50 at Bcl-2 WT, in the assay on MV-4-11 cells and with RS4; 11Bcl-2-G101V cells were 26.7 nM, 422 nM and 750 nM, respectively.

On to `CC1(C)CCC(CN2CCN(c3ccc(C(=O)NS(=O)(=O)c4ccc(NC[C@H]5CC[C@](C)(O)CC5)c([N+](=O)[O-])c4)c(Oc4cnc5[nH]ccc5c4)c3)CC2)=C(c2cc(-c3ccc(C(C)(C)O)cc3F)cs2)C1` [Example 62, 2-((1H-pyrrolo[2,3-b]pyridin-5-yl)oxy)-4-(4-((2-(4-(2-fluoro-4-(2-hydroxypropan-2-yl)phenyl)thiophen-2-yl)-4,4-dimethylcyclohex-1-en-1-yl)methyl)piperazin-1-yl)-N-((4-((((1r,4r)-4-hydroxy-4-methylcyclohexyl)methyl)amino)-3-nitrophenyl)sulfonyl)benzamide], for which the IC50 on Bcl-2 WT was determined as 15.7 nM; with MV-4-11 cells, 4 nM; in the assay on RS4; 11Bcl-2-G101V cells, 140 nM.

Regarding `CC(C)c1csc(C2=C(CN3CCN(c4ccc(C(=O)NS(=O)(=O)c5ccc(NCC6CCOCC6)c([N+](=O)[O-])c5)c(Oc5cnc6[nH]ccc6c5)c4)CC3)CCC(C)(C)C2)c1` [Example 8, 2-((1H-pyrrolo[2,3-b]pyridin-5-yl)oxy)-4-(4-((2-(4-isopropylthiophen-2-yl)-4,4-dimethylcyclohex-1-en-1-yl)methyl)piperazin-1-yl)-N-((3-nitro-4-(((tetrahydro-2H-pyran-4-yl)methyl)amino)phenyl)sulfonyl)benzamide], the IC50 at Bcl-2 WT worked out at 17.7 nM; in the assay on MV-4-11 cells it was 21 nM; in the assay with RS4; 11Bcl-2-G101V cells, 1440 nM.

For `CC1(C)CCC(CN2CCN(c3ccc(C(=O)NS(=O)(=O)c4ccc(NC[C@H]5CC[C@](C)(O)CC5)c([N+](=O)[O-])c4)c(Oc4cnc5[nH]ccc5c4)c3)CC2)=C(c2cc(-c3cc(F)cc(C#N)c3)cs2)C1` [Example 55, 2-((1H-pyrrolo[2,3-b]pyridin-5-yl)oxy)-4-(4-((2-(4-(3-cyano-5-fluorophenyl)thiophen-2-yl)-4,4-dimethylcyclohex-1-en-1-yl)methyl)piperazin-1-yl)-N-((4-((((1r,4r)-4-hydroxy-4-methylcyclohexyl)methyl)amino)-3-nitrophenyl)sulfonyl)benzamide], the IC50 is 31.2 nM on Bcl-2 WT, 72 nM in the assay on MV-4-11 cells and 1140 nM with RS4; 11Bcl-2-G101V cells.

Turning to `CC1(C)CCC(CN2CCN(c3ccc(C(=O)NS(=O)(=O)c4ccc(NC[C@H]5CC[C@](C)(O)CC5)c([N+](=O)[O-])c4)c(Oc4cnc5[nH]ccc5c4)c3)CC2)=C(c2cc(-c3ccc(F)cc3F)cs2)C1` [Example 43, 2-((1H-pyrrolo[2,3-b]pyridin-5-yl)oxy)-4-(4-((2-(4-(2,4-difluorophenyl)thiophen-2-yl)-4,4-dimethylcyclohex-1-en-1-yl)methyl)piperazin-1-yl)-N-((4-((((1r,4r)-4-hydroxy-4-methylcyclohexyl)methyl)amino)-3-nitrophenyl)sulfonyl)benzamide], the IC50 on Bcl-2 WT stood at 21.1 nM; in the assay with MV-4-11 cells, 8 nM; with RS4; 11Bcl-2-G101V cells it was 280 nM.

As for `CC1(C)CCC(CN2CCN(c3ccc(C(=O)NS(=O)(=O)c4ccc(NC[C@H]5COCCO5)c([N+](=O)[O-])c4)c(Oc4cnc5[nH]ccc5c4)c3)CC2)=C(c2cc(CN3CCN(C4COC4)CC3)cs2)C1` [Example 31, (S)—N-((4-(((1,4-dioxan-2-yl)methyl)amino)-3-nitrophenyl)sulfonyl)-2-((1H-pyrrolo[2,3-b]pyridin-5-yl)oxy)-4-(4-((4,4-dimethyl-2-(4-((4-(oxetan-3-yl)piperazin-1-yl)methyl)thiophen-2-yl)cyclohex-1-en-1-yl)methyl)piperazin-1-yl)benzamide], the IC50 at Bcl-2 WT was 26 nM; in the assay on MV-4-11 cells, 147 nM; with RS4; 11Bcl-2-G101V cells, 880 nM.

For `CC1(C)CCC(CN2CCN(c3ccc(C(=O)NS(=O)(=O)c4ccc(NC[C@H]5COCCO5)c([N+](=O)[O-])c4)c(Oc4cnc5[nH]ccc5c4)c3)CC2)=C(c2cc(-c3ccc(C(F)F)cc3)cs2)C1` [Example 48, (S)—N-((4-(((1,4-dioxan-2-yl)methyl)amino)-3-nitrophenyl)sulfonyl)-2-((1H-pyrrolo[2,3-b]pyridin-5-yl)oxy)-4-(4-((2-(4-(4-(difluoromethyl)phenyl)thiophen-2-yl)-4,4-dimethylcyclohex-1-en-1-yl)methyl)piperazin-1-yl)benzamide], the IC50 came out at 20.2 nM on Bcl-2 WT, 9 nM in the assay on MV-4-11 cells and 810 nM with RS4; 11Bcl-2-G101V cells.

Turning to `CC1(C)CCC(CN2CCN(c3ccc(C(=O)NS(=O)(=O)c4ccc(NC[C@H]5CC[C@](C)(O)CC5)c([N+](=O)[O-])c4)c(Oc4cnc5[nH]ccc5c4)c3)CC2)=C(c2cc(-c3ccc(C(F)(F)F)cc3)cs2)C1` [Example 41, 2-((1H-pyrrolo[2,3-b]pyridin-5-yl)oxy)-4-(4-((4,4-dimethyl-2-(4-(4-(trifluoromethyl)phenyl)thiophen-2-yl)cyclohex-1-en-1-yl)methyl)piperazin-1-yl)-N-((4-((((1r,4r)-4-hydroxy-4-methylcyclohexyl)methyl)amino)-3-nitrophenyl)sulfonyl)benzamide], the IC50 turned out to be 44 nM at Bcl-2 WT, 50 nM in the assay on MV-4-11 cells and 3230 nM in the assay with RS4; 11Bcl-2-G101V cells.

Consider `CC(=O)NC(C)(C)c1cc(F)c(-c2csc(C3=C(CN4CCN(c5ccc(C(=O)NS(=O)(=O)c6ccc(NC[C@H]7CC[C@](C)(O)CC7)c([N+](=O)[O-])c6)c(Oc6cnc7[nH]ccc7c6)c5)CC4)CCC(C)(C)C3)c2)c(F)c1` [Example 80, 2-((1H-pyrrolo[2,3-b]pyridin-5-yl)oxy)-4-(4-((2-(4-(4-(2-acetamidopropan-2-yl)-2,6-difluorophenyl)thiophen-2-yl)-4,4-dimethylcyclohex-1-en-1-yl)methyl)piperazin-1-yl)-N-((4-((((1r,4r)-4-hydroxy-4-methylcyclohexyl)methyl)amino)-3-nitrophenyl)sulfonyl)benzamide], for which the IC50 on Bcl-2 WT came out at 15.6 nM; in the assay with MV-4-11 cells it was 111 nM; in the assay with RS4; 11Bcl-2-G101V cells, 420 nM.

In the case of `Cc1ccc(C2=C(CN3CCN(c4ccc(C(=O)NS(=O)(=O)c5ccc(NCC6CCOCC6)c([N+](=O)[O-])c5)c(Oc5cnc6[nH]ccc6c5)c4)CC3)CCC(C)(C)C2)s1` [Example 6, 2-((1H-pyrrolo[2,3-b]pyridin-5-yl)oxy)-4-(4-((4,4-dimethyl-2-(5-methylthiophen-2-yl)cyclohex-1-en-1-yl)methyl)piperazin-1-yl)-N-((3-nitro-4-(((tetrahydro-2H-pyran-4-yl)methyl)amino)phenyl)sulfonyl)benzamide], the IC50 was found to be 16.2 nM at Bcl-2 WT, 66 nM with MV-4-11 cells and 3940 nM in the assay on RS4; 11Bcl-2-G101V cells.

As to `CC1(C)CCC(CN2CCN(c3ccc(C(=O)NS(=O)(=O)c4ccc(NC[C@H]5COCCO5)c([N+](=O)[O-])c4)c(Oc4cnc5[nH]ccc5c4)c3)CC2)=C(c2cc(CN3CCC(N4CCOCC4)CC3)cs2)C1` [Example 28, (S)—N-((4-(((1,4-dioxan-2-yl)methyl)amino)-3-nitrophenyl)sulfonyl)-2-((1H-pyrrolo[2,3-b]pyridin-5-yl)oxy)-4-(4-((4,4-dimethyl-2-(4-((4-morpholinopiperidin-1-yl)methyl)thiophen-2-yl)cyclohex-1-en-1-yl)methyl)piperazin-1-yl)benzamide], the IC50 at Bcl-2 WT was 20.7 nM; in the assay on MV-4-11 cells it was 276 nM; in the assay on RS4; 11Bcl-2-G101V cells, 1210 nM.

On to `CC(C)(O)Cc1ccc(-c2csc(C3=C(CN4CCN(c5ccc(C(=O)NS(=O)(=O)c6ccc(NC[C@H]7CC[C@](C)(O)CC7)c([N+](=O)[O-])c6)c(Oc6cnc7[nH]ccc7c6)c5)CC4)CCC(C)(C)C3)c2)c(F)c1` [Example 73, 2-((1H-pyrrolo[2,3-b]pyridin-5-yl)oxy)-4-(4-((2-(4-(2-fluoro-4-(2-hydroxy-2-methylpropyl)phenyl)thiophen-2-yl)-4,4-dimethylcyclohex-1-en-1-yl)methyl)piperazin-1-yl)-N-((4-((((1r,4r)-4-hydroxy-4-methylcyclohexyl)methyl)amino)-3-nitrophenyl)sulfonyl)benzamide], for which the IC50 at Bcl-2 WT is 23.7 nM; in the assay on MV-4-11 cells, 8 nM; with RS4; 11Bcl-2-G101V cells, 490 nM.

For the compound `CC1(C)CCC(CN2CCN(c3ccc(C(=O)NS(=O)(=O)c4ccc(NC[C@H]5CC[C@](C)(O)CC5)c([N+](=O)[O-])c4)c(Oc4cnc5[nH]ccc5c4)c3)CC2)=C(c2cc(-c3cc(F)c(F)cc3F)cs2)C1` [Example 53, 2-((1H-pyrrolo[2,3-b]pyridin-5-yl)oxy)-4-(4-((4,4-dimethyl-2-(4-(2,4,5-trifluorophenyl)thiophen-2-yl)cyclohex-1-en-1-yl)methyl)piperazin-1-yl)-N-((4-((((1r,4r)-4-hydroxy-4-methylcyclohexyl)methyl)amino)-3-nitrophenyl)sulfonyl)benzamide], the IC50 on Bcl-2 WT was 27.8 nM; in the assay with MV-4-11 cells, 9 nM; with RS4; 11Bcl-2-G101V cells, 430 nM.
